From patent US4916217A, “Phosphorus containing derivatives of epipodophyllotoxin” (priority 1987, dated 1990)
≈ marks a conversion by molar mass, not a printed value. Where “and” joins values, the source holds several entries; their conditions need not be identical. Identical values can stand only once.

What was measured:
[1] = system: HCT-116 human colon tumor cell line; experiment: in vitro cytotoxicity assay, HCT-116; assay type: cell-based; conditions: 50% inhibition of cell growth; etoposide values (in parentheses) from the same run
Experimental: (§1) The test data involves a cytotoxicity assay versus various murine and human tumors, and in vivo evaluation against P-388 leukemia and B16 melanoma in mice.
(§2) The in vitro cytotoxicity assay involved growing various mammalian tumor cells, including human tumor cells, on microtitre plates employing established tissue culture methods. The concentration of each compound required to inhibit cell growth by 50% (IC50) was then determined by a four-fold serial dilution technique. The validity of the method has been supported by a report published in the "Proceedings of the American Association for Cancer Research", Vol. 25, 328, p. 1891 (1984). Tumor cells of the following types were employed for each compound tested: B16-F10 murine melanoma; Moser human colon; M109 murine lung; and three human colon tumor cell lines namely HCT-116, HCT-VM, and HCT-VP, the latter two being resistant to teniposide (VM) and etoposide (VP). A wide range of IC50 values was observed, and quantitative comparisons amongst test compounds or against the etoposide control values were not possible.

[2] = system: HCT-VP human colon tumor cell line; experiment: in vitro cytotoxicity assay, HCT/VP (etoposide resistant); assay type: cell-based; conditions: 50% inhibition of cell growth; etoposide values (in parentheses) from the same run
Experimental: as §1, §2

B16 melanoma = experiment: B16 melanoma, in vivo antitumor activity; set-up: species or system BDF1 female mice; conditions: for % T/C: B16 melanoma s.c.
Moser human colon = experiment: in vitro cytotoxicity assay, Moser; assay type: cell-based; conditions: 50% inhibition of cell growth; etoposide values (in parentheses) from the same run
Experimental: as §1, §2

[3] = system: variety of cancers including small cell lung cancer, non-lymphocytic leukemia, and nonseminomatous testicular cancer; conditions: AMA Drug Evaluations, 5th Edition, 1983; cited from earlier work
[4] = system: HCT-VM human colon tumor cell line; experiment: in vitro cytotoxicity assay, HCT/VM (teniposide resistant); assay type: cell-based; conditions: 50% inhibition of cell growth; etoposide values (in parentheses) from the same run
Experimental: as §1, §2

B16-F10 murine melanoma = experiment: in vitro cytotoxicity assay, B16-F10; assay type: cell-based; conditions: 50% inhibition of cell growth, etoposide values (in parentheses) from the same run
Experimental: as §1, §2

P-388 murine leukemia = experiment: P-388 murine leukemia, in vivo antitumor activity; set-up: species or system CDF1 female mice; Average Weight Change: unit: g; conditions: for Average Weight Change / Maximum Effect % T/C: P-388, i.p.; for effectiveness relative to etoposide (% T/C): P-388, days 5 and 8 protocol
Experimental: The test protocol involved CDF1 female mice implanted intraperitoneally with a tumor inoculum of 10^6 ascites cells of P-388 murine leukemia and treated with various doses of a test compound, or with etoposide. The compounds were administered by intraperitoneal injection on various schedules. Groups of four mice were used for each dosage schedule and amount. A group of ten saline treated control mice was included in each series of experiments, and etoposide treated groups of six were included as a positive control. Thirty one, 47, and 49 day protocols were employed with the mean survival time in days being determined for each group of mice and the number of survivors at the end of the period being noted. The mice were weighed before treatment and again on day 5 or day 6. Mice weighing 20 grams each were employed and a loss in weight of up to approximately 2 grams was not considered excessive. The results are arranged in Table II and were determined in terms of % T/C which is the ratio of the mean survival time of the treated group to the mean survival time of the saline treated control group times 100. The saline treated control animals usually died within nine days. The "maximum effect" in the table is expressed as % T/C and the dose giving that effect is reported. Two different dosage regimens were employed. In one, the first dose of test drug was given on Day 1, the day of tumor inoculation, and second was given on Day 5. In the other, the first dose of test drug was given on Day 5 and a second dose on Day 8. According to the latter protocol, the etoposide control % T/C values are lower than according to the former protocol indicating a more stringent test regimen.

M109 murine lung = experiment: in vitro cytotoxicity assay, M109; assay type: cell-based; conditions: 50% inhibition of cell growth; etoposide values (in parentheses) from the same run
Experimental: as §1, §2

[5] = 40 mg/kg, treatment days 1 and 5
[6] = 60 mg/kg, treatment days 1 and 5
[7] = 60 mg/kg, treatment days 5 and 8
[8] = 120 mg/kg, treatment days 1 and 5
[9] = 160 mg/kg, treatment days 5 and 8
[10] = 200 mg/kg, treatment days 5 and 8

Compound | IC50 HCT-116 [1] | IC50 HCT/VP [2] | IC50 Moser (Moser human colon) | activity in the treatment of cancers [3] | IC50 HCT/VM [4] | IC50 B16-F10 (B16-F10 murine melanoma) | Average Weight Change (P-388 murine leukemia; [8]) | Maximum Effect % T/C (P-388 murine leukemia; [8]) | IC50 M109 (M109 murine lung) | effectiveness relative to etoposide (% T/C) (P-388 murine leukemia) | also measured
COc1cc([C@@H]2c3cc4c(cc3[C@@H](O[C@@H]3O[C@@H]5CO[C@@H](C)O[C@H]5[C@H](O)[C@H]3O)[C@H]3COC(=O)[C@H]23)OCO4)cc(OC)c1O [Etoposide, reference compound] | 2.1 µg/mL and 2.7 µg/mL | 30 µg/mL and 41 µg/mL | 38 µg/mL and 39 µg/mL | active | 6.1 µg/mL and 3.1 µg/mL | 1.9 µg/mL (≈ 3.23 µM) |  |  |  |  | % T/C (B16 melanoma; i.p., 100 mg/kg): > 177; IC50 B16-F10 (B16-F10 murine melanoma; listed as etoposide): 9 to 12 µg/mL; Average Weight Change (P-388 murine leukemia; [5]): -1.9; Maximum Effect % T/C (P-388 murine leukemia; [5]): > 450 % T/C; Average Weight Change (P-388 murine leukemia; [6]): -0.4; Maximum Effect % T/C (P-388 murine leukemia; [6]): > 573 % T/C; Average Weight Change (P-388 murine leukemia; [7]): +2.1; Maximum Effect % T/C (P-388 murine leukemia; [7]): 280 % T/C
CCP1(CC)(CC)Oc2cc([C@@H]3c4cc5c(cc4[C@@H](O[C@@H]4O[C@@H]6CO[C@@H](C)O[C@H]6[C@H](O)[C@H]4O)[C@H]4COC(=O)[C@H]34)OCO5)cc(OC)c2O1 [Example 1, ETOPOSIDE-3',4'-DIOXATRIETHYLPHOSPHORANE] | 47 µg/mL and 46 µg/mL | 108 µg/mL and 89 µg/mL | 64 µg/mL and 85 µg/mL |  | 56 µg/mL and 45 µg/mL |  | -0.7 | > 544 % T/C |  |  | activity against B16 melanoma (prolongation of survival) (B16 melanoma; B16 melanoma implanted subcutaneously, i.p. dosage): active; % T/C (B16 melanoma; i.p. dosage, 40 mg/kg): 145%
COc1cc([C@@H]2c3cc4c(cc3[C@@H](O[C@@H]3O[C@@H]5CO[C@@H](C)O[C@H]5[C@H](O)[C@H]3O)[C@H]3COC(=O)[C@H]23)OCO4)cc2c1OP(C)(CO)(CO)O2 [Example 2] | 9.8 µg/mL and 10.6 µg/mL | 74 µg/mL and 80 µg/mL | 74 µg/mL and 70 µg/mL |  |  | 21 µg/mL and 30 µg/mL |  |  | 76 µg/mL and 71 µg/mL | Greater effectiveness | Average Weight Change (P-388 murine leukemia; [9]): +2.6; Maximum Effect % T/C (P-388 murine leukemia; [9]): 305 % T/C
COc1cc([C@@H]2c3cc4c(cc3[C@@H](O[C@@H]3O[C@@H]5CO[C@@H](C)O[C@H]5[C@H](O)[C@H]3O)[C@H]3COC(=O)[C@H]23)OCO4)cc2c1OP(CCC#N)(CCC#N)(CCC#N)O2 [Example 3, Etoposide-3',4'-Dioxa-Tris-(2-Cyanoethyl)Phosphorane] | 15.6 µg/mL and 14.3 µg/mL | 64 µg/mL and 99 µg/mL | 105 µg/mL and 79 µg/mL |  | 35 µg/mL and 56 µg/mL | 20 µg/mL and 22 µg/mL |  |  | 54 µg/mL and 56 µg/mL | Greater effectiveness | Average Weight Change (P-388 murine leukemia; [10]): +3.2; Maximum Effect % T/C (P-388 murine leukemia; [10]): 285 % T/C
COc1cc([C@@H]2c3cc4c(cc3[C@@H](O[C@@H]3O[C@@H]5CO[C@@H](c6cccs6)O[C@H]5[C@H](O)[C@H]3O)[C@H]3COC(=O)[C@H]23)OCO4)cc(OC)c1O [Teniposide] |  |  |  | active |  |  |  |  |  |  | 
Etoposide-Bis-(2-Chloroethyl)Phosphate, Mixture of 3' and 4'Regioisomers [Example 4] |  | 203 µg/mL and 168 µg/mL | 84 µg/mL |  | 63 µg/mL and 82 µg/mL | 13.1 µg/mL and 20.7 µg/mL | +0.2 | 150 % T/C | > 125 µg/mL and 97 µg/mL |  | 
